The assay concerns the target Complement factor D (Homo sapiens, UniProt P00746). As to the kind of experiment: In Vitro Assay: Method 1: Recombinant human factor D (expressed in E. coli and purified using standard methods) at 10 nM concentration is incubated with test compound at various concentrations for 1 hour at room temperature in 0.1 M Hepes buffer, pH 7.5, containing 1 mM MgCl2, 1 M NaCl and 0.05% CHAPS. A synthetic substrate Z-Lys-thiobenzyl and 2,4-dinitrobenzenesulfonyl-fluoresceine are added to final concentrations of 200 μM and 25 μM, respectively. The increase in fluorescence is recorded at excitation of 485 nm and emission at 535 nm in a microplate spectrofluorimeter. IC50 values are calculated from percentage of inhibition of complement factor D-activity as a function of test compound concentration.

pIC50: −log10 of the molar value.

Complement factor D, sequence (P00746 whole entry): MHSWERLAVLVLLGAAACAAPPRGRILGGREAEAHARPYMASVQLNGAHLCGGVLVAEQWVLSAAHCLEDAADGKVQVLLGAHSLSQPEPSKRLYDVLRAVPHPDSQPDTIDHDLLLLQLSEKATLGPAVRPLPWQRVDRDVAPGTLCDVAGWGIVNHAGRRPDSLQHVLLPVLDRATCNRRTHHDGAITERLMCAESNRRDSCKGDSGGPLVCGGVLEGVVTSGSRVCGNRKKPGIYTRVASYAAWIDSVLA

For the compound `CC(C)=C(F)CNC(=O)[C@@H]1C[C@H]2C[C@H]2N1C(=O)Nc1cn(C(N)=O)c2ccccc12`, the negative logarithm of the IC50 (pIC50) (commonly the negative decadic logarithm of the IC50, by convention in mol/L) is 7.62.
